SMILES strings stand for the structures.

In data set [1] the test system is schizophrenia. Nature of the data set: Example 3 case study: augmentation of clozapine treatment. The data set is classed as in vivo, human. From the text: The patient was a morbidly obese person, who was first hospitalized in 1966 for psychotic symptoms, leading to a psychiatric diagnosis of schizophrenia. Their primary symptoms consisted of a set of strange and elaborate ideas about transmitting their thoughts to others, thoughts that they had invented “invisible steel” which was being used by the CIA and aliens, and a high degree of suspiciousness about the discriminatory intent of their clergyman and the local police. They denied any overt hallucinations, although they acknowledged “weird noises” associated with aliens attempting to contact them. At initial hospitalization, the patient was also profoundly confused and disorganized in their thought processes. Over the next two decades they were hospitalized four more times with essentially this same clinical picture, eventually being admitted in 1989 to a state hospital for long-term treatment where they remain to this day.
During their five hospitalizations the patient was treated with a variety of anti-psychotic medications, often in various combinations and dosages. In 1994 they were characterized as being treatment refractory according to the Kane criteria and enrolled in an NIMH sponsored study of three different doses of clozapine. As a participant in this study the patient received 100, 300, 600 mg, each for a 3-month period.
The patient was nonetheless continued on a 100 mg dose of clozapine, with the intent of using a variety of different augmentation strategies to possibly improve their clinical state. […] Throughout this period, the patient's strange and bizarre ideas persisted. They remained emotionally withdrawn, and required regular PRN medication to reduce their agitation on the ward.
Toward the end of the year 2000, the patient was treated with a drug regimen of 100 mg of clozapine, 2 mg of risperidone, and 750 mg of valproic acid. At this time, the patient agreed to augment their treatment with topiramate. The valproic acid was gradually withdrawn, and on Dec. 5, 2000 the patient was started on 50 mg of topiramate. The topiramate was increased at a rate of 50 mg per week up to a daily dosage of 200 mg where they remained for over four months. Within the first 2-3 weeks of topiramate treatment several important clinical changes were observed. […] Rather than being very certain about their ability to transmit thought to others they now are not sure that this is possible. They were also no longer certain that they actually invented “invisible steel”, but instead mostly only believed that they once thought it, although occasionally the delusional belief breaks though into their thinking. […] Second, as a result of treatment with topiramate the patient's agitation was decreased and PRN medication for agitation was no longer required.

A further data set relates to schizoaffective disorder. Nature of the data set: Example 1 case study: topiramate added to olanzapine-containing regimen. The data set is classed as in vivo, human. The text has this: The patient was a single person, diagnosed with schizoaffective disorder, who presented with a variety of problems including disorganized behavior, suspiciousness, ideas of reference, stereotyped and obsessional thinking, lack of motivation, poor hygiene, poverty of speech, oppositional behavior and intermittent suicide attempts. The patient spent virtually the entire day in bed and was awake through the night. […] Despite continuous psychiatric and pharmacological treatment, the patient remained substantially disabled by withdrawal, apathy, poverty of speech, poor hygiene, anhedonia and suspiciousness. […] In addition, the patient was seen weekly in individual psychotherapy. There were no additional active medical problems. The patient was started on topiramate with dosages increased over a period of six weeks to 400 mg/day. […] In addition, the patient's residual positive symptoms, including primary suspiciousness and ideas of reference, were improved and the patient became less fearful of interacting with other. Patient's social functioning was improved, with the patient able to hold part-time employment. […] The patient maintained their part-time employment and engaged in productive social activity several times a week. […] (Lorazepam was removed with sustained improvement.)

Data set [2] has as its system schizophrenia. Nature of the data set: Example 2 open label pilot study on topiramate as adjunctive therapy in schizophrenia. The data set is classed as in vivo, human. The following applies: Patient 1. The procedure:
Results from Open Label Pilot Study on Topiramate as Adjunctive Therapy in the Treatment of Schizophrenia
The patient was a person who met DSM-IV diagnostic criteria for chronic undifferentiated schizophrenia. […] The patient had been maintained on a stable regimen of 20 mg olanzapine prior to initiation of the study. […] Although the patient lived in a group home with other residents, they preferred to spend most of their free time alone, watching television or staying in their room, and went to bed between 7 and 8 o'clock each night. The patient had limited social interactions in the partial hospitalization program, initiating contact with only a few friends. The patient was intrusive during groups and was unable to empathize with others within the group.
The patient was begun on topiramate at an initial dose of 25 mg/day, titrating to an optimal dosage level of 175 mg/day, which was given in two divided doses during an eight week maintenance medication phase of a clinical trial.
They also became less stereotyped in their speech, with very infrequent references to their previous recurrent theme of golf. After 12 weeks of adjunctive therapy with topiramate, the patient also appeared more realistic about their golfing skills, stating than they were an “average” golfer, as opposed to their previous assertions about winning several club tournaments.
The patient also resumed going to bed around 6:30 or 7:00 pm each night.

Data set [3] concerns schizophrenia, undifferentiated type. The experiment in a line: Example 4 case study: topiramate added to haloperidol and risperidone. Type of data set: in vivo, human. The text has this:
The patient was a person, who was first hospitalized in 1983 on an involuntary basis-due to their inability to care for themself. Upon admission, they were described as paranoid, suspicious, agitated, and delusional, and was given the diagnosis of schizophrenia, undifferentiated type. They expressed persecutory delusions saying that the Mafia was going to hurt them. They heard voices telling them that someone was going to rape their parent. After one year of hospitalization, they were discharged into the community, where they soon became unstable resulting in two suicide attempts by hanging and two more short-term hospitalizations. In 1988 the patient was admitted into a state hospital for long-term treatment where they remain to this day. Over the past decade or more, their clinical picture had remained unchanged. They had been treated with numerous anti-psychotic medications, including the newer a typical medicines with little or no benefit. Their high level of agitation and persecutory delusions often propelled them into confrontations with staff and other patients, and they were regularly treated with PRN medications or placed into seclusion for their behavior. […] The topiramate dosage was titrated at a rate of 50 mg per week up to a daily dosage of 150 mg, at which dose the patient remained for a period of 4 months. Within the first month of treatment with topiramate several important clinical changes began to emerge. […] Within 1-2 weeks, the patient was no longer in seclusion and the use of PRN medication for agitation became very rare. Second, the patient's expressions persecutory delusions or suspiciousness decreased, and they were able to join into group activities on the unit.

The subject of data set [4] is schizophrenia. The experiment in a line: Example 2 open label pilot study on topiramate as adjunctive therapy in schizophrenia. Type of data set: in vivo, human.
Data set [5] deals with simple and complex partial seizures and secondarily generalized seizures. The following applies: adjunctive therapy or monotherapy; cited from earlier work.
The test system of a further data set is seizures. The following applies: several rodent models of epilepsy; cited from earlier work.
For a further data set, the system named is kindled epilepsy. The following applies: animal model of kindled epilepsy; cited from earlier work.
Setting [6] is: topiramate up to 400 mg/day added to olanzapine-containing regimen.
Where [7] appears, read: topiramate 175 mg/day added to 20 mg olanzapine.
The mark [8] stands for this setting: topiramate 25 to 175 mg/day added to 20 mg olanzapine.
Setting [9] is: topiramate 50 to 200 mg daily added to 100 mg clozapine, 2 mg risperidone.
Where [10] appears, read: period of treatment that included topiramate.
[11] abbreviates: topiramate 50 to 150 mg daily added to haloperidol and risperidone.

Turning to `Cc1nc2n(c(=O)c1CCN1CCC(c3noc4cc(F)ccc34)CC1)CCCC2` [risperidone, 3-[2-[4-(6-fluoro-1,2-benzisoxazol-3-yl)piperidino]ethyl]-2-methyl-6,7,8,9-tetrahydro-4H-pyrido-[1,2-a]pyrimidin-4-one], the “adverse event when added to clozapine treatment” value in the data set with schizophrenia [1] (standard dose added to 100 mg clozapine) is “severe tremors”. In addition, the “effect when added to clozapine treatment” value in the data set on schizophrenia [1] (standard doses added to 100 mg clozapine) is on record as “little effect”. In addition, the “benefit of clozapine augmentation with low dose risperidone” value in the data set with schizophrenia [1] (study in 2000) was “lack of treatment benefit”.
Turning to `CN1CCN(C2=Nc3cc(Cl)ccc3Nc3ccccc32)CC1` [clozapine, 8-chloro-11-(4-methyl-1-piperazinyl)-5H-dibenzo[b,e][1,4]diazepine], the adverse event entry in the data set with schizophrenia [1] (900 mg of clozapine) is “led to a seizure”. In addition, the response to treatment entry in the data set on schizophrenia [1] (clozapine 100, 300, 600 mg, each for 3 months (NIMH study)) is “did not show any meaningful response”.
In the case of `CCCC(CCC)C(=O)O` [Depakote, divalproex sodium], the “benefit when added to clozapine treatment” value with schizophrenia [1] (up to 5000 mg added to clozapine, 1999) was “little benefit”.
`CC1(C)O[C@@H]2[C@@H](CO[C@@]3(COS(N)(=O)=O)OC(C)(C)O[C@@H]23)O1` [topiramate, 2,3:4,5-bis-O-(1-methylethylidene)-β-D-fructopyranose sulfamate]: in the data set with schizoaffective disorder (after 5 months, topiramate decreased to 300 mg/day), the maintenance of improvement entry is listed as “improvements maintained”. The maintenance of improvement result in the data set with schizoaffective disorder (after 10 months, 300 mg topiramate, 7.5 mg olanzapine, 400 mg fluvoxamine, 1 mg lorazepam daily) was “improvement was still sustained”. Also, the maintenance of improvement result with schizoaffective disorder (after more than 2 years, 300 mg topiramate, 7.5 mg olanzapine, 400 mg fluvoxamine daily) is “remained improved”. The “negative symptoms (eye contact, attention, concentration, poverty of speech, grooming, hygiene, withdrawal)” value with schizoaffective disorder (topiramate increased over six weeks to 400 mg/day, added to fluvoxamine, Depakote, lorazepam, olanzapine 10 mg, over 8 weeks) is “significant improvement”. Moreover, in the data set on schizoaffective disorder (setting [6]), the “residual positive symptoms (suspiciousness, ideas of reference)” value is on record as “improved” and the social functioning entry is listed as “improved”. In addition, in the data set with schizophrenia [2] (setting [7]), the “change in the Positive or General Scales of the PANSS” value is “did not show any consistent, significant change” and the “decrease in the Negative Scale score (PANSS) from baseline” value is reported as 7 points. In the data set on schizophrenia [2] (setting [8]), the tolerability result is “well tolerated”; the “vital signs and laboratory values” is reported as “remained within the normal range”. The “Negative Scale score after discontinuation of topiramate” value in the data set on schizophrenia [2] (upon completion of the study protocol) is on record as “increase in the Negative Scale score”. Besides, the “clinical state (opinion of the treatment team)” value in the data set with schizophrenia [1] (addition of topiramate) is “clear and important degree of improvement”. In addition, in the data set on schizophrenia [1] (setting [9]), the level of suspiciousness result is “decreased” and the “thought organisation / conversation” value is listed as “able to engage in a logical conversation”. In addition, the agitation entry in the data set on schizophrenia [1] (topiramate 50 to 200 mg daily added to 100 mg clozapine, 2 mg risperidone, PRN medication no longer required) was “decreased”. Further, in the data set on schizophrenia [1] (topiramate 50 to 200 mg daily added to 100 mg clozapine, 2 mg risperidone, within first 2-3 weeks), the “level of preoccupation with delusional thoughts” value is reported as “obviously reduced”. Also, in data set [3] (setting [10]), the “intensity of positive symptoms (auditory hallucinations, delusions of persecution)” value is “reduced in occurrence and severity”; the social withdrawal result is reported as “less socially withdrawn”. Also, in data set [3] (setting [11]), the “expressions of persecutory delusions or suspiciousness” value was “decreased” and the negative symptoms result is listed as “fewer negative symptoms”. In addition, in data set [3] (topiramate 50 to 150 mg daily added to haloperidol and risperidone, within first month), the level of agitation result was “reduced dramatically”. The “response with regards to negative symptoms” value in the data set with schizophrenia [4] (Patients 2 & 3, adjunctive topiramate) is given as “did not respond significantly”. Also, the positive symptoms result in the data set with schizophrenia [4] (Patients 2 & 3, over the course of the trial) is given as “decreases in positive symptoms”. For the same compound, the negative symptoms result in the data set on schizophrenia [4] (one of Patients 2 & 3, fluctuated during drug maintenance period) was “limited decrease”. For the same compound, the “side effect potentially attributable to topiramate” value in the data set on schizophrenia [4] (second of Patients 2 & 3, topiramate 100 mg/day) was “difficulties with verbal fluency and word finding”. Moreover, the negative symptoms result in the data set with schizophrenia [4] (second of Patients 2 & 3, topiramate 100 mg/day lowered to 75 mg/day, dropped from study) was “significant decrease”. Moreover, the “efficacy in treating simple and complex partial seizures and secondarily generalized seizures” value in data set [5] is “effective”. For the same compound, the seizure block result with seizures is recorded as “effectively block seizures”. Besides, the seizure block entry with kindled epilepsy is “effectively block seizures”.

These data come from patent US20030109546A1, “Treatment of psychotic disorders comprising co-therapy with anticonvulsant derivatives and atypical antipsychotics” (priority 2001, published 2003).
